Consider 5 compounds from ChEMBL document CHEMBL2010746, “Synthesis, resolution and anticonvulsant activity of chiral N-1'-ethyl,N-3'-(1-phenylethyl)-(R,S)-2'H,3H,5'H-spiro-(2-benzofuran-1,4'-imidazolidine)-2',3,5'-trione diastereomers” (2012).

Active and inactive are the calls of the source. The rule behind the calls is not given here.

Assay [1] deals with Mus musculus. Put plainly: Anticonvulsant activity in ip dosed mouse assessed as decrease in pentylenetetrazol-induced convulsions at 30 mins. The assay is classed as functional. Conditions: 0.5 h.
Assay [2] concerns Mus musculus. Nature of the assay: Anticonvulsant activity in mouse assessed as decrease in pentylenetetrazol-induced convulsions up to 300 mg/kg, ip at 30 mins. It is filed as functional, organism-based. Details: dose 300 mg/kg.
The subject of assay [3] is Mus musculus. Put plainly: Anticonvulsant activity in mouse assessed as decrease in pentylenetetrazol-induced convulsions at 300 mg/kg, ip at 30 mins. It is filed as functional, organism-based. Also noted: dose 300 mg/kg.

Consider `CCN1C(=O)N([C@@H](C)c2ccccc2)[C@@]2(OC(=O)c3ccccc32)C1=O`, for which the ED50 (usually the dose at which the effect has come halfway, by size or by number of responders) in the assay on Mus musculus [1] came out at 300 mg/kg.

In the case of `CCN1C(=O)N([C@H](C)c2ccccc2)[C@@]2(OC(=O)c3ccccc32)C1=O`, the outcome in the assay with Mus musculus [2] was inactive.

For the compound `CCC1(c2ccccc2)C(=O)NC(=O)NC1=O` [PHENOBARBITAL], the ED50 in the assay on Mus musculus [1] worked out at 25 mg/kg.

Consider `CCN1C(=O)N([C@H](C)c2ccccc2)[C@]2(OC(=O)c3ccccc32)C1=O`, for which the outcome with Mus musculus [3] was Active.

In the case of `CCN1C(=O)N([C@@H](C)c2ccccc2)[C@]2(OC(=O)c3ccccc32)C1=O`, the outcome in the assay on Mus musculus [2] was inactive.
